One data set has as its system NMDA receptor. Description: Anti-NMDA activity: prevention of convulsions and death caused by NMDA injected into the lateral ventricle of the brain. The format is in vivo. The following applies: mice; i.p. 40 minutes before NMDA 0.1 μg into the lateral ventricle; probit analysis. The protocol:
The experiment was conducted in white non-inbred male mice of 20–24 g of weight. A solution of the test agent in 0.2 ml of 5% aqueous dimethylsulfoxide was injected intraperitoneally 40 minutes before the injection of NMDA into the lateral vehicle of the brain. For the mice that had been prepared beforehand for the experiment a skin flap on the head of each mouse was removed under ether anestesia and a hole was bored in the skull by a fine drill. NMDA (0.1 μg) in a volume of 1.4 μl was injected with a microsyringe. The microsyringe needle was immersed to a depth of 2.5 mm. After the operation, the wound was treated with a 2% novocaine solution. […] The accuracy of NMDA injection was monitored by injection of methylene blue. Two to 4 hours after the operation, the mice were used for a pharmacological experiment.
The animals inoculated with a saline solution were used as control.
Each dose of the agent was tested in a croup of 6–8 animals. The ED50 value (the dose of the agent preventing the development of convulsions and the death of 50% of the animals) was determined by a probit-analysis method (Litchfild J. T., Wicoxon F. J.—Pharmacol. Exp. Therap., 1949, v. 96, p. 99–114).

Data set [1] relates to patients suffering from Alzheimer's disease. The data set is described as follows: Clinical trial of dimebon: blood and urea analysis. The format is in vivo, human. The source says: By the 8th week of the treatment the amount of leukocytes was normal again.

`Cc1ccc2c(c1)c1c(n2CCc2ccc(C)nc2)CCN(C)C1` [No. 10, 2,8-dimethyl-5-[2-(6-methyl-3-pyridyl)ethyl]-2,3,4,5-tetrahydro-1H-pyrido[4,3-b]indole]: the “ED50 (dose preventing the development of convulsions and the death of 50% of the animals)” value in the data set on NMDA receptor is 42 ± 6 mg/kg. The amount of leukocytes result in data set [1] (after 4 weeks, within normal limits, p<0.05) is “significant reduction”; in data set [1] (by the 8th week) it was “normal again”. Further, the “hematological and biochemical status” value in data set [1] (during the course of the treatment) is on record as “No pathologic changes”.

The values are drawn from patent US7071206B2, “Agents for treating neurodegenerative disorders” (Medivation, Inc., priority 1995, dated 2006).
